Earlier results on 2 compounds are cited in patent US20080248506A1, “Method of Monitoring Anti-Tumor Activity of an Hdac Inhibitor” (Pharmacyclics, Inc., priority 2004, published 2008).

One data set deals with H2AX. The note with it: myeloid leukemia cell lines (HL60, K562, MDS92L; n=3).

Consider `Nc1ccccc1NC(=O)c1ccc(CNC(=O)OCc2cccnc2)cc1` [MS-275], for which, in the data set on γ-H2AX (compound by itself, no irradiation), the γ-H2AX accumulation entry is given as “does not produce γ-H2AX accumulation”. Moreover, the “number of irradiated cells that express γ-H2AX foci” value in the data set on γ-H2AX (with irradiation) is reported as “increase the number of irradiated cells that express γ-H2AX foci”.

In the case of `CC(/C=C/C(=O)NO)=C\[C@@H](C)C(=O)c1ccc(N(C)C)cc1` [Trichostatin], in the data set on H2AX, the H2AX phosphorylation result is “cause H2AX phosphorylation”.
